Patent US9970938B2, “Use of BUBR1 as a biomarker of drug response to furazanobenzimidazoles” (Basilea Pharmaceutica AG, priority 2011, dated 2018)

Tests used:
Format in all cases: cell-based, human
HeLa cells = assay: YO-PRO assay of siRNA-treated cells; details: BUBR1 siRNA pool, 48 hours treatment
Protocol: For siRNA experiments to assess effects on BUBR1 expression levels by immunoblotting and effects on tumour cell proliferation and viability using the YO-PRO assay (FIGS. 7, 9,10 and 11), and Crystal Violet Assay (FIGS. 12 and 13), cells were seeded in 6 well plates at an appropriate density: HeLa (cervical cancer cells; ATCC reference CCL-2) 2.5E+04 (for YO-PRO) or 4.0E+04 (for Crystal Violet) cells per well, H460 (NSCLC cells; ATCC reference HTB-177) 5.0E+04 cells per well, MCF-7 (breast carcinoma cells; ATCC reference HTB-22) 2.4E+05 cells per well, Panc1 (pancreatic cancer cells, ATCC reference CRL-1469) and HCT116 (colon cancer cells, ATCC reference CCI-247) 8E+04 cells per well, and were cultured at 37° C. and 5% CO2 in RPMI-1640 or DMEM containing 10% FCS (complete medium). […]
12.5 μl YO-PRO®-1 iodide (491/509)(Invitrogen/Molecular Probes, # Y-3603; 1 mM in DMSO) were added to 1 ml 5-times concentrated YO-PRO buffer (100 mM Na-citrate, pH 4.0; 134 mM NaCl) to produce the YO-PRO Mix. […] The uptake of YO-PRO dye into cells was assessed by using a SpectraMax M2^e plate reader (Molecular Devices) using 485 nm excitation and 538 nm emission at a cutoff of 530 nm. […] Fluorescent read-out was performed in a SpectraMax M2^e plate reader (Molecular Devices) using 485 nm excitation and 538 nm emission at a cut off of 530 nm. […]

SKOV3 resistant 2 = assay: Crystal Violet assay of BAL27862-resistant cell line versus parental line
Text: (§1) BAL27862-resistant sublines of human non-small cell lung cancer (H460 ATCC reference HTB-177; A549 ATCC reference CCL-185), ovarian cancer (SKOV3 ATCC reference HTB-77) lines were generated by long-term selection in complete cell culture medium (RPMI-1640 containing 10% FCS; Sigma-Aldrich) by stepwise increasing concentrations of BAL27862. […] The resistant sublines were expanded at the highest tolerated BAL27862 concentration and subsequently frozen and stored in liquid nitrogen.
(§2) After medium was removed, cells were fixed and stained by adding 50 μl Crystal Violet Staining (0.2% Crystal Violet in 50% Methanol) per well. Plates were incubated for 1 hour at room temperature. Subsequently the stain was decanted and plates were washed 4 times with double-distilled water. Plates were air-dried for several hours. Stain was dissolved by adding 100 μl buffer (0.1 M Tris pH 7.5, 0.2% SDS, 20% Ethanol) per well and shaking the plates. Absorbance at 590 nm was measured using a SpectraMax M2e plate reader (Molecular Devices). Anti-proliferative IC50 values were calculated from concentration response curves using GraphPad Prism software. Resistance factors were calculated as a ratio of BAL27862 IC50 in the resistant line variant versus the IC50 in the parental line.

H460 = assay: as above
Text: as §1, §2

SKOV3 resistant 1 = assay: as above
Text: as §1, §2

A549 = assay: as above
Text: as §1, §2

[1] = system: SKBR3 breast cancer cells; assay: Immunofluorescent staining of microtubules in cultured cells; details: 24 hours, 50 nM
Protocol: (§3) A549 human non-small cell lung cancer (NSCLC, ATCC reference number CCL-185) cells, HeLa cervical cancer cells (ATCC reference number CCL-2) and SKBR3 breast carcinoma cells (ATCC reference number HTB-30) were seeded at densities of 50% on round microscope coverslips and cultured for 24 hours in RPMI-1640 containing 10% FCS (also referred to as FBS) at 37° C., 5% CO2. Compounds to be tested were dissolved in DMSO. The cell culture medium was replaced with medium containing the diluted compound(s) (paclitaxel, vinblastine, colchicine and nocodazole were purchased from Sigma-Aldrich) or vehicle. After treatment, coverslips were washed and cells were fixed in methanol/acetone (1:1) for 5 minutes at room temperature and subsequently incubated in blocking buffer (0.5% BSA and 0.1% TX-100 in PBS) for 30 minutes at room temperature. Specimens were then incubated with anti-alpha-tubulin antibody (Sigma, 1:2000) for 1 hour at room temperature in blocking buffer. After several washing steps cells were incubated with AlexaFluor-488 goat-anti-mouse IgG (Molecular Probes, 1:3000) for 1 hour at room temperature followed by several washing steps with blocking buffer. Specimens were then mounted with ProLong Gold antifade (Molecular Probes), sealed with nail polish and examined with a Leica immunofluorescence microscope. Images were captured with a cooled CCD-camera and processed by ImageJ software.

[2] = system: HeLa cervical cancer cells; assay: as above; details: 24 hours, 50 nM
Protocol: as §3

A549 NSCLC cells = assay: as above
Protocol: as §3

With N#CCCNc1nonc1-c1nc2ccccc2n1CC(=O)c1ccc(N)cc1 [BAL27862, 3-(4-{1-[2-(4-Amino-phenyl)-2-oxo-ethyl]-1H-benzoimidazol-2-yl}-furazan-3-ylamino)-propionitrile] as the molecule, how does the “antiproliferative effect with reduced BUBR1 expression” value (HeLa cells) read?
The value was “dramatically reduced”.

What about the “tumour cell death with reduced BUBR1 expression” value (HeLa cells) of the same molecule?
Its value is “no increase in tumour cell death observed”.

And the “resistance factors versus parental lines (based on IC50 determinations)” value (shortened to “resistance factors versus parental lines”) (SKOV3 resistant 2)?
The value was 11.6 fold.

What about the “resistance factors versus parental lines” value (H460) of the same molecule?
The value was 5.3 fold.

What about the “resistance factors versus parental lines” value (SKOV3 resistant 1) of the same molecule?
Its value is 7.6 fold.

And the “resistance factors versus parental lines” value (A549)?
The value was 3.0 fold.

And the “microtubule phenotype of mitotic or G2/M arrested cells” value [1]?
Its value is “highly reproducible and distinct microtubule phenotype”.

What about the “microtubule phenotype of mitotic or G2/M arrested cells” value [2] of the same molecule?
The value was “highly reproducible and distinct microtubule phenotype”.

And the “microtubule phenotype of mitotic or G2/M arrested cells” value (A549 NSCLC cells; 24 hours treatment, anti-alpha-tubulin staining)?
Its value is “highly reproducible and distinct microtubule phenotype”.

And the “microtubule phenotype, BAL27862 added for the last 4 hours of 24 hours vinblastine, colchicine, paclitaxel or nocodazole treatment” value (A549 NSCLC cells; combination)?
The value was “disruption of the microtubule structures”.
